“And” between values parts separate entries of the source, which are not always exact repeats. Equal entries are not always repeated. Toxic doses and inconclusive results are not listed. Rule as the data show it: active = T/C of 150% or more; inactive = T/C below 125%.
Tested on: L1210 leukemia ip in BDF1 mice, survival T/C
Assay: NCI In Vivo Anticancer Drug Screen. Data for tumor model L1210 Leukemia (intraperitoneal) in B6D2F1 (BDF1) mice
Conditions: higher = longer survival
Method in brief: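 Antitumor effect is assessed in tumor-bearing animals. Survival in the compound arm is compared with a vehicle-dosed control arm and expressed as their quotient.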

[1] = endpoint: mean survival time, dose: 100.0 mg/kg/injection, schedule: Q01DX009 (ip), vehicle: saline with Tween-80
[2] = endpoint: mean survival time, dose: 100.0 mg/kg/injection, schedule: Q01DX001 (ip), vehicle: saline
[3] = endpoint: mean survival time, dose: 200.0 mg/kg/injection, schedule: Q01DX001 (ip), vehicle: saline
[4] = endpoint: mean survival time, dose: 400.0 mg/kg/injection, schedule: Q01DX001 (ip), vehicle: saline
[5] = endpoint: mean survival time, dose: 25.0 mg/kg/injection, schedule: Q04DX002 (ip), vehicle: Klucel (hydroxypropylcellulose) (HPC)
[6] = endpoint: mean survival time, dose: 50.0 mg/kg/injection, schedule: Q04DX002 (ip), vehicle: Klucel (hydroxypropylcellulose) (HPC)
[7] = endpoint: mean survival time, dose: 100.0 mg/kg/injection, schedule: Q04DX002 (ip), vehicle: Klucel (hydroxypropylcellulose) (HPC)
[8] = endpoint: mean survival time, dose: 200.0 mg/kg/injection, schedule: Q04DX002 (ip), vehicle: Klucel (hydroxypropylcellulose) (HPC)
[9] = endpoint: mean survival time, dose: 400.0 mg/kg/injection, schedule: Q04DX002 (ip), vehicle: Klucel (hydroxypropylcellulose) (HPC)

Measured: T/C

BrCCOc1ccccc1
inactive: endpoint: mean survival time, dose: 100.0 mg/kg/injection, schedule: Q01DX009 (ip), vehicle: other 95 % of control | endpoint: mean survival time, dose: 200.0 mg/kg/injection, schedule: Q01DX009 (ip), vehicle: other 101 % of control

COn1c(=O)[nH]c2ccccc2c1=O
inactive: [1] 94 % of control | endpoint: mean survival time, dose: 200.0 mg/kg/injection, schedule: Q01DX009 (ip), vehicle: saline with Tween-80 91 % of control | endpoint: mean survival time, dose: 400.0 mg/kg/injection, schedule: Q01DX009 (ip), vehicle: saline with Tween-80 97 % of control

N#CCN(CC#N)CCN(CC#N)CCN(CC#N)CC#N
inactive: [2] 104 % of control | [3] 104 % of control | [4] 95 % of control

CS(C)=O
inactive: [2] 112 % of control | [3] 102 % of control | [4] 106 % of control | endpoint: mean survival time, dose: 1500.0 mg/kg/injection, schedule: Q01DX Z (ip), vehicle: other 98 % of control | endpoint: mean survival time, dose: 1.6 grams/kg/injection, schedule: Q03HX008 (ip), vehicle: saline 97 % of control | endpoint: mean survival time, dose: 1.6 grams/kg/injection, schedule: Q03HX016 (ip), vehicle: saline 101 % of control | endpoint: mean survival time, dose: 1.6 grams/kg/injection, schedule: Q03HX024 (ip), vehicle: saline 105 % of control | endpoint: mean survival time, dose: 3000.0 mg/kg/injection, schedule: Q01DX Z (ip), vehicle: other 98 % of control | endpoint: mean survival time, dose: 3.1 grams/kg/injection, schedule: Q01DX001 (ip), vehicle: saline 104 % of control | endpoint: mean survival time, dose: 3.1 grams/kg/injection, schedule: Q01DX009 (ip), vehicle: saline 100 % of control | endpoint: mean survival time, dose: 3.1 grams/kg/injection, schedule: Q03HX008 (ip), vehicle: saline 91 % of control | endpoint: mean survival time, dose: 3.1 grams/kg/injection, schedule: Q03HX024 (ip), vehicle: saline 110 % of control | endpoint: mean survival time, dose: 3.1 grams/kg/injection, schedule: Q04DX003 (ip), vehicle: saline 95 % of control | endpoint: mean survival time, dose: 3.1 grams/kg/injection, schedule: Q08DX002 (ip), vehicle: saline 98 % of control | endpoint: mean survival time, dose: 6.3 grams/kg/injection, schedule: Q01DX001 (ip), vehicle: saline 100 % of control | endpoint: mean survival time, dose: 6.3 grams/kg/injection, schedule: Q01DX009 (ip), vehicle: saline 97 % of control | endpoint: mean survival time, dose: 6.3 grams/kg/injection, schedule: Q04DX003 (ip), vehicle: saline 95 % of control | endpoint: mean survival time, dose: 6.3 grams/kg/injection, schedule: Q08DX002 (ip), vehicle: saline 96 % of control | endpoint: median survival time, dose: 0.5 mg/kg/injection, schedule: Q#C X009 (adlb), vehicle: water 106 % of control | endpoint: median survival time, dose: 1.0 mg/kg/injection, schedule: Q01DX019 (adlb), vehicle: water 92 % of control | endpoint: median survival time, dose: 1.0 mg/kg/injection, schedule: Q#C X009 (adlb), vehicle: water 102 % of control | endpoint: median survival time, dose: 2.0 mg/kg/injection, schedule: Q01DX019 (adlb), vehicle: water 97 % of control | endpoint: median survival time, dose: 2.0 mg/kg/injection, schedule: Q#C X009 (adlb), vehicle: water 107 % of control | endpoint: median survival time, dose: 4.0 mg/kg/injection, schedule: Q01DX019 (adlb), vehicle: water 99 % of control | endpoint: median survival time, dose: 4.0 mg/kg/injection, schedule: Q#C X009 (adlb), vehicle: water 101 % of control | endpoint: median survival time, dose: 8.0 mg/kg/injection, schedule: Q#C X009 (adlb), vehicle: water 103 % of control

COC(=O)c1c2cccccc-2c(C(=O)OC)c1N
inactive: endpoint: mean survival time, dose: 100.0 mg/kg/injection, schedule: Q04DX002 (ip), vehicle: saline with Tween-80 97 % of control | endpoint: mean survival time, dose: 200.0 mg/kg/injection, schedule: Q04DX002 (ip), vehicle: saline with Tween-80 91 % of control | endpoint: mean survival time, dose: 400.0 mg/kg/injection, schedule: Q04DX002 (ip), vehicle: saline with Tween-80 94 % of control

N#C/C=C/C=C/C#N
inactive: endpoint: mean survival time, dose: 75.0 mg/kg/injection, schedule: Q01DX001 (ip), vehicle: other 98 % of control | endpoint: mean survival time, dose: 150.0 mg/kg/injection, schedule: Q01DX001 (ip), vehicle: other 103 % of control

Cc1cccc(C)c1NC(=O)NCc1ccco1
inactive: [5] 99 % of control | [6] 118 % of control | endpoint: mean survival time, dose: 100.0 mg/kg/injection, schedule: Q01DX009 (ip), vehicle: Klucel (hydroxypropylcellulose) (HPC) 103 % of control | [7] 100 % of control and 103 % of control | endpoint: mean survival time, dose: 100.0 mg/kg/injection, schedule: Q04DX003 (ip), vehicle: Klucel (hydroxypropylcellulose) (HPC) 103 % of control | endpoint: mean survival time, dose: 200.0 mg/kg/injection, schedule: Q01DX009 (ip), vehicle: Klucel (hydroxypropylcellulose) (HPC) 107 % of control | endpoint: mean survival time, dose: 200.0 mg/kg/injection, schedule: Q04DX003 (ip), vehicle: Klucel (hydroxypropylcellulose) (HPC) 100 % of control | endpoint: mean survival time, dose: 400.0 mg/kg/injection, schedule: Q01DX009 (ip), vehicle: Klucel (hydroxypropylcellulose) (HPC) 102 % of control | endpoint: mean survival time, dose: 400.0 mg/kg/injection, schedule: Q04DX003 (ip), vehicle: Klucel (hydroxypropylcellulose) (HPC) 93 % of control

N#CC(NC(=O)c1ccccc1)SCc1ccccc1 (stereo unspecified)
inactive: [5] 107 % of control | [6] 91 % of control | [7] 91 % of control

C#CC(CC)(CC)NC(=O)NC(C)(C)C
inactive: [7] 98 % of control | [8] 102 % of control | [9] 86 % of control

CCC(/C=N/NC(N)=O)c1ccccc1OC (stereo unspecified)
inactive: [2] 96 % of control | [3] 104 % of control | [4] 109 % of control

O=C(O)COc1ccccc1[N+](=O)[O-]
inactive: [7] 96 % of control | [8] 100 % of control | [9] 96 % of control

O=S(=O)(O)c1ccc(-c2c3nc(c(-c4ccc(S(=O)(=O)O)cc4)c4ccc([nH]4)c(-c4ccc(S(=O)(=O)O)cc4)c4nc(c(-c5ccc(S(=O)(=O)O)cc5)c5ccc2[nH]5)C=C4)C=C3)cc1
inactive: endpoint: mean survival time, dose: 12.5 mg/kg/injection, schedule: Q01DX009 (ip), vehicle: saline with Tween-80 90 % of control | endpoint: mean survival time, dose: 25.0 mg/kg/injection, schedule: Q01DX009 (ip), vehicle: saline with Tween-80 90 % of control | endpoint: mean survival time, dose: 50.0 mg/kg/injection, schedule: Q01DX009 (ip), vehicle: saline with Tween-80 98 % of control | [1] 88 % of control

O=c1c2ccccc2sc2c1ccc1c2ccc2c(=O)c3ccccc3sc21
inactive: endpoint: mean survival time, dose: 100.0 mg/kg/injection, schedule: Q04DX003 (ip), vehicle: saline with Tween-80 96 % of control | endpoint: mean survival time, dose: 200.0 mg/kg/injection, schedule: Q04DX003 (ip), vehicle: saline with Tween-80 87 % of control
